Results taken from publication PMC10126514, “The interaction of peptide inhibitors and Aβ protein: Binding mode analysis, inhibition of the formation of Aβ aggregates, and then exert neuroprotective effects” (Frontiers in Aging Neuroscience, 2023).
“Also recorded” adds a separate entry of the source. Residues, ends and D or L forms follow the SMILES beside them.

Legend:
Aβ aggregation = details: cited from earlier work; for Aβ aggregation and toxicity: ref Cheng et al., 2012
Description: (§1) In recent years, through the emergence of peptides that inhibit the aggregation of Aβ, extensive research has been conducted on peptides for the treatment of Alzheimer’s disease. However, these peptides have high specificity and low toxicity, which will make them candidate drugs for peptide inhibitors against Aβ aggregation ([Fosgerau and Hoffmann, 2015]). Peptides designed by computer simulation and applied to Alzheimer’s disease are becoming more and more popular and welcomed by researchers. At present, the peptide inhibitors of Aβ aggregation include LVFF, KLVFF, KLVFF modified peptide (QKL ...

PC12 cells [1] = details: cited from earlier work
Description: Abnormally precipitated Aβ in amyloid plaques becomes one of the hallmark proteins of brain nerve damage in AD patients, and promotes the deterioration of AD. The accumulation of Aβ protein is caused by the interaction between the hydrophobic center and the C-terminal molecule ([Kapadia et al., 2021]). At present, the development of anti-Aβ aggregation compounds is a promising approach in the treatment of AD, and many clinical trials are ongoing. […] However, these peptides have high specificity and low toxicity, which will make them candidate drugs for peptide inhibitors against Aβ aggregation ([Fosgerau and Hoffmann, 2015]). Peptides designed by computer simulation and applied to Alzheimer’s disease are becoming more and more popular and welcomed by researchers. At present, the peptide inhibitors of Aβ aggregation include LVFF, KLVFF, KLVFF modified peptide (QKL ...

Aβ1–42 = molecular target: T1, Aβ1–42 (Homo sapiens, UniProt P05067); experiment: SPR affinity of peptide and Aβ1–42; type: binding; details: for Binding ability ranking by KD / Binding phase of SPR kinetic curve / Dissociation phase of SPR kinetic curve: SPR, qualitative
T1 construct: purchased GL Biochem Ltd. (Shanghai)
Description: Surface Plasmon Resonance (SPR) is a sensitive surface analysis technique that detects changes in dielectric constant caused by molecules adsorbed on heavy metal films. In this study, the 1-(3-Dimethylaminopropyl)-3-ethylcarbodiimide hydrochloride (EDC) and N-Hydroxy succinimide (NHS) in the coupling kit were, respectively, dissolved in 1 mL of activation buffer, divided into 10 parts, 100 μL/part, and stored at −20°C for later use. Before the experiment, first install the CM5 chip in the machine and wash it with HBS-EP buffer 3 times. […] After the experiment is over, use the Evaluation software to analyze the results, and use Flow Cell2 to subtract the background signal of channel 1 as the experimental result. The 1:1 binding method is used for fitting calculation and analysis of affinity parameters: binding rate constant ka (1/Ms), dissociation rate constant kd (1/s) and equilibrium dissociation constant KD (M), KD = kd/ ka, the smaller the KD value, the stronger the affinity.

Aβ1–42 aggregation = experiment: ThT fluorescence, inhibition of Aβ1–42 aggregation; type: biochemical, Human; details: for ThT fluorescence intensity vs Aβ group: PBS, ex 440/em 480 nm
Description: ThT is a chemical fluorescent dye. […] Based on this fluorescence phenomenon, ThT is used as a kind of fluorescent indicator to detect the degree of aggregation of Aβ.
Take about 10 μL of the sample, dilute it 20 times with ThT solution, and read the fluorescence intensity value with a microplate reader, 440 nm is the excitation wavelength, and 480 nm is the emission wavelength, and the bandwidth is 5 nm. […] The sample was repeated five times and the average value was taken.

PC12 cells [2] = type: cell-based, Rat
Description: Pipette the cultured cells in a cell culture flask repeatedly to make them evenly distributed. Use a pipete to pipete 10 μL of cell suspension and transfer to a cell counting plate for counting. Count under a microscope to calculate the number of living cells distributed in a large square composed of 16 squares on the cytometer. Cell density (pcs / mL) = (sum of cell count/4) × 10^4 Calculate the cell concentration, repeat counting 2–3 times for each sample (the value should not be too different each time, otherwise the operation should be repeated). If there are less than 5 cells in each large square, you need to re-centrifuge to adjust the cell concentration.
Use CCK-8 kit to detect cell viability, reflecting the cytotoxicity of peptide inhibitors themselves. The counted PC12 cells were plated at 100 μL/well (8 × 10^4 cells/well). After put the 96-well plate at 37°C for 12 h, discard the medium, add 100 μL of medium containing different concentrations of peptide inhibitors to each well, and continue to culture 24 h. […] The wells with DMEM medium solution containing no peptide inhibitors but containing cells were used as the control group.
Cell Viability(%)=ODadministration group−[…]ODcontrol group−ODblank group×100%

[3] = tested on: rat primary cortical neurons; design: method as in Pradhan et al., 2019; details: ref Pradhan et al., 2019; cited from earlier work
PC12 cells [4] = details: CCK-8, co-incubated with Aβ1–42 72 h
Description: Rat adrenal pheochromocytoma (PC12) cells were donated by Zhengzhou University School of Basic Medicine (#CRL-1721; RRID: CVCL-0481) in DMEM containing 10% fetal bovine serum, 1% penicillin and 1% streptomycin, culture in a cell incubator with 5% CO2 and 37°C, and passage once every 3 days.
Add 10 μL of CCK-8 solution to each well and continue to incubate for 2 h. Add 10 μL of CCK-8 solution to each well and continue to incubate for 2 h. The wells with normal DMEM medium and cell solution were used as the control group. The wells with 100 μL DMEM medium and 10 μL CCK-8 solution but no cells were used as the blank control, and the absorbance was measured at 450 nm.

apoptosis caused by Aβ = details: ref Hadipour et al., 2020; cited from earlier work
Description: Abnormally precipitated Aβ in amyloid plaques becomes one of the hallmark proteins of brain nerve damage in AD patients, and promotes the deterioration of AD. The accumulation of Aβ protein is caused by the interaction between the hydrophobic center and the C-terminal molecule ([Kapadia et al., 2021]). At present, the development of anti-Aβ aggregation compounds is a promising approach in the treatment of AD, and many clinical trials are ongoing.

Aβ1–42 oligomerization = details: ref Takahashi and Mihara, 2008, cited from earlier work
Description: as §1

[5] = peptide 50 μM, Aβ1–42 25 μM, 37°C, 24 h, ThT
[6] = peptide 50 μM, Aβ1–42 25 μM, 37°C, 24 h, n = 5 mean

T1 sequence (P05067 672-713 limits assumed): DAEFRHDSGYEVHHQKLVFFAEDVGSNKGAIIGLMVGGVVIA

LFFFAED [amyloid β-sheet mimics ; LFFFAED (Aβ17–23)]
Aβ aggregation and toxicity (Aβ aggregation): antagonizing Aβ protein aggregation and reducing Aβ toxicity

KLVFFAE [amyloid β-sheet mimics ; KLVFFAE (Aβ16–22)]
Aβ aggregation and toxicity (Aβ aggregation): antagonizing Aβ protein aggregation and reducing Aβ toxicity

CC(C)=CCC[C@@H](C)[C@H]1CC[C@@]2(C)C3=C(CC[C@]12C)[C@@]1(C)CC[C@H](O)C(C)(C)[C@@H]1CC3 [lanosterol]
Aβ-induced cytotoxicity in PC12 cells (PC12 cells [1]; ref Zhou et al., 2019): reduce the Aβ-induced cytotoxicity in PC12 cells

QKLVFF
Formation of Aβ fibers (Aβ aggregation; ref Findeis et al., 1999): inhibiting the formation of Aβ fibers

H2N-KLVFF (4-I) -CONH2 [iodinated KLVFF]
Anti-aggregation activity vs other halogenated peptides (Aβ aggregation; 10 μM peptide, 10 μM Aβ, 1:1, ref Khalili Samani and Mofid, 2020): show the best resistance compared to other halogenated peptides

CC(=O)N[C@@H](Cc1ccc(O)cc1)C(=O)N[C@H](C(=O)N[C@@H](CCCNC(=N)N)C(=O)N[C@@H](Cc1c[nH]cn1)C(=O)N[C@@H](Cc1c[nH]cn1)C(=O)N[C@@H](Cc1c[nH]cn1)C(=O)N[C@@H](Cc1ccc(O)cc1)C(=O)N[C@H](C(=O)N[C@@H](CCCNC(=N)N)C(=O)N[C@@H](Cc1c[nH]cn1)C(=O)N[C@@H](Cc1c[nH]cn1)C(=O)N[C@@H](Cc1c[nH]cn1)C(N)=O)C(C)C)C(C)C [P9] (Ac-YVRHHHYVRHHH-NH2)
Kd (Aβ1–42): 14 µM
Binding ability ranking by KD (Aβ1–42): the weakest
Binding phase of SPR kinetic curve (Aβ1–42): the curve rises steadily, and it takes a long time to reach saturation
Dissociation phase of SPR kinetic curve (Aβ1–42): relatively slow in the dissociation phase
Inhibitory effect on Aβ aggregation (Aβ1–42 aggregation; [5]): no inhibitory effect on Aβ aggregation
ThT fluorescence intensity vs Aβ group (Aβ1–42 aggregation; [6]): increased, but the difference is not statistically significant (p > 0.05)
Cell viability at 6.25 μM (PC12 cells [2]): began to decrease significantly (p < 0.05)
Cell viability at 25, 50, 100 and 200 μM (PC12 cells [2]): decreased significantly, with extremely significant differences (p < 0.01)

Ser-Leu-Lys-Pro [SLKP, tetrapeptide]
Neurite growth [3]: promoted significant neurite growth
Neuroprotection against Aβ-mediated toxicity [3]: significant neuroprotection against Aβ-mediated toxicity

CC(=O)N[C@@H](Cc1ccc(O)cc1)C(=O)N[C@H](C(=O)N[C@@H](CCCNC(=N)N)C(=O)N[C@@H](Cc1c[nH]cn1)C(=O)N[C@@H](CC(=O)O)C(=O)N[C@@H](CC(C)C)C(=O)N[C@@H](Cc1ccc(O)cc1)C(=O)N[C@H](C(=O)N[C@@H](CCCNC(=N)N)C(=O)N[C@@H](Cc1c[nH]cn1)C(=O)N[C@@H](CC(=O)O)C(=O)N[C@@H](CC(C)C)C(N)=O)C(C)C)C(C)C [P12] (Ac-YVRHDLYVRHDL-NH2)
Kd (Aβ1–42): 0.327 µM
Binding ability ranking by KD (Aβ1–42): the strongest
Binding phase of SPR kinetic curve (Aβ1–42): rises rapidly at the beginning of binding and reaches saturation in a short time
Dissociation phase of SPR kinetic curve (Aβ1–42): the curve drops rapidly and the dissociation is completed
Inhibitory effect on Aβ aggregation (Aβ1–42 aggregation; [5]): no inhibitory effect on Aβ aggregation
ThT fluorescence intensity vs Aβ group (Aβ1–42 aggregation; [6]): increased, but the difference is not statistically significant (p > 0.05)
Cell viability at 6.25 μM (PC12 cells [2]): significant effect on the viability of PC12 cells at 6.25 μM (p < 0.05)

CC(=O)N[C@@H](Cc1ccc(O)cc1)C(=O)N[C@H](C(=O)N[C@@H](CCCNC(=N)N)C(=O)N[C@@H](Cc1c[nH]cn1)C(=O)N[C@@H](CC(C)C)C(=O)N[C@@H](CCCCN)C(=O)N[C@@H](Cc1ccc(O)cc1)C(=O)N[C@H](C(=O)N[C@@H](CCCNC(=N)N)C(=O)N[C@@H](Cc1c[nH]cn1)C(=O)N[C@@H](CC(C)C)C(=O)N[C@@H](CCCCN)C(N)=O)C(C)C)C(C)C [P21] (Ac-YVRHLKYVRHLK-NH2)
Kd (Aβ1–42): 53.8 µM
Binding phase of SPR kinetic curve (Aβ1–42): rises rapidly at the beginning, but slowly reaches saturation in the following time, and the binding rate is faster
Dissociation phase of SPR kinetic curve (Aβ1–42): dissociates relatively quickly
Cell viability at ratios above 1:1 (1:2, 1:4) (PC12 cells [4]; after ratio 1:1, increasing P21 (1:2, 1:4)): cell viability continued to increase
Cell viability at ratio 1:4 (PC12 cells [4]; ratio 1:4): reaching the maximum at 1:4, which was close to the normal level
Inhibitory effect on formation of Aβ1–42 aggregates at ratio 1:1 (Aβ1–42 aggregation; incubated with Aβ1–42 at a ratio of 1:1, ThT, listed as YVRHLKYVRHLK): significant inhibitory effect on the formation of Aβ1–42 aggregates when incubated with Aβ1–42 at a ratio of 1:1 (p < 0.05)
Inhibitory effect on Aβ aggregation (Aβ1–42 aggregation; [5]): strong inhibitory ability on Aβ aggregation; also recorded: good inhibitory effect on the protein aggregation of Aβ1–42
Inhibition of Aβ1–42 aggregation (Aβ1–42 aggregation; peptide 50 μM, Aβ1–42 25 μM, 37°C, 24 h, ThT, n = 5 mean, Aβ alone = 100% fluorescence): 100%
ThT fluorescence intensity vs Aβ group (Aβ1–42 aggregation; [6]): significantly lower than that of the Aβ group (p < 0.05)
Cell viability at 25 μM (PC12 cells [2]): significantly reduced at 25 μM (p < 0.05)
Toxicity to PC12 cells at 50 μM (PC12 cells [2]): less toxic to PC12 cells at a concentration of 50 μM

pituitary adenylate cyclase activating polypeptide [PACAP]
Aβ-induced cell death in PC12 cells (PC12 cells [1]; ref Onoue et al., 2002): attenuates Aβ-induced cell death in PC12 cells by increasing cAMP
Caspase-3 (PC12 cells [1]; ref Onoue et al., 2002): inactivation of apoptotic factor (caspase-3)

CC(=O)N[C@@H](Cc1ccc(O)cc1)C(=O)N[C@H](C(=O)N[C@@H](CCCNC(=N)N)C(=O)N[C@@H](Cc1c[nH]cn1)C(=O)N[C@@H](CO)C(=O)N[C@H](C(=O)N[C@@H](Cc1ccc(O)cc1)C(=O)N[C@H](C(=O)N[C@@H](CCCNC(=N)N)C(=O)N[C@@H](Cc1c[nH]cn1)C(=O)N[C@@H](CO)C(=O)N[C@H](C(N)=O)C(C)C)C(C)C)C(C)C)C(C)C [P11] (Ac-YVRHSVYVRHSV-NH2)
Kd (Aβ1–42): 20.5 µM
Binding phase of SPR kinetic curve (Aβ1–42): the curve rises steadily, and it takes a long time to reach saturation
Dissociation phase of SPR kinetic curve (Aβ1–42): relatively slow in the dissociation phase
Inhibitory effect on Aβ aggregation (Aβ1–42 aggregation; [5]): certain inhibitory ability on Aβ aggregation
ThT fluorescence intensity vs Aβ group (Aβ1–42 aggregation; [6]): decreased, but the difference was not statistically significant (p > 0.05)
Cell viability at 3.125 μM (PC12 cells [2]): cell viability began to decrease significantly at low concentration (3.125 μM) of P11 (p < 0.05)

CC(C)=CCC/C(C)=C/CC/C(C)=C/CC/C(C)=C/CC1=C(C)C(=O)c2ccccc2C1=O [vitamin K2]
Apoptosis caused by Aβ accumulation (apoptosis caused by Aβ): significantly reduced
Ratio of Bax/Bcl-2 (apoptosis caused by Aβ): decreased

Ac-KQKLLLFLEE-NH2
Aβ1–42 oligomerization (Aβ1–42 oligomerization; co-assembles with mature Aβ1–42 fibrils): effectively inhibit Aβ1–42 oligomerization
Self-assembly (Aβ1–42 oligomerization): form amyloid fibrils
